From US12404265B2, “Substituted pyridine derivatives as SARM1 inhibitors” (Nura Bio, Inc., priority 2020, dated 2025) come the findings set out here.

For this assay, the target named is T1, human SARM1(50-724) (Homo sapiens, UniProt Q6SZW1).
T1 construct: 40 nM human SARM1(50-724)
T1 sequence (Q6SZW1 50-724): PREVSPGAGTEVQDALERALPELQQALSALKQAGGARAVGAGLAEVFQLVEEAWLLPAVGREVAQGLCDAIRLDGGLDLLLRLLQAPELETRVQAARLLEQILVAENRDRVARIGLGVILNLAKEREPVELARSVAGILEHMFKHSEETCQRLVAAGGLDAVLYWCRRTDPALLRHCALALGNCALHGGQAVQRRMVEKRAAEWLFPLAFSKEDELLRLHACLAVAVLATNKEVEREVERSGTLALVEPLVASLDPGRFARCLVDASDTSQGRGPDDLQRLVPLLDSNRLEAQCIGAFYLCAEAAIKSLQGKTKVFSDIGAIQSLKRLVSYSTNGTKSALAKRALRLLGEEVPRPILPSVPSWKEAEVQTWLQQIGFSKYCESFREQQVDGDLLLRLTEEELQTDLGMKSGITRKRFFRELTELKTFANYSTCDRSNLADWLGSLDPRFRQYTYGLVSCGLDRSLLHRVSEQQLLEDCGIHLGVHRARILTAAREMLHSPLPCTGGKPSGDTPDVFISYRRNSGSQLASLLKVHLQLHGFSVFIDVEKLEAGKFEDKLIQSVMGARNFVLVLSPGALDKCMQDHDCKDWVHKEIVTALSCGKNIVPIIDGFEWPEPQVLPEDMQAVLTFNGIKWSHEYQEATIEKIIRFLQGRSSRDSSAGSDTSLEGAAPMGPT
The assay is described as follows: SARM1 NADase biochemical assay (HPLC of NAD and NAM). The settings on record: 40 nM human SARM1(50-724), 0.3 mM NMN, 20 μM NAD, 60 minutes room temperature; dose-response from 100 μM, 1:3 dilution. As for the experimental part:
Each reaction was run at a volume of 20 μL containing 50 μM compound (dissolved in DMSO; final concentration of DMSO is 1% v/v), 40 nM human SARM1(50-724), 0.3 mM NMN, 20 μM NAD, 1 mM TCEP, 25 mM HEPES pH 7.4, 10 mM KCl and 10 mM MgCl2. The reaction was incubated at room temperature for 60 minutes and quenched with 20 μL of 0.4% formic acid. The samples were run on Agilent HPLC 1260 Infinity II with Synergi 2.5 μM Fusion-RP 100 Å (100×3.0 mm) LC column from Phenomenex. Total run time for each sample was 4 minutes. The run was isocratic with 1.5% methanol in 40 mM ammonium acetate pH 6.0. Samples were run at a flow rate of 0.8 mL/min at 55° C. Peak areas of NAD and NAM were determined using OpenLAB CDS (Chem Station edition) software. For dose-response, the compound was diluted serially 1:3 in DMSO and added to the reaction starting at a final compound concentration of 100 μM in 1% DMSO.
As to `Cc1c(-c2ccncc2)n[nH]c1NC(=O)C(F)Cc1ccc(Cl)cc1` (racemic) [Example 18, (rac)-3-(4-chlorophenyl)-2-fluoro-N-(4-methyl-3-(pyridin-4-yl)-1H-pyrazol-5-yl)propanamide], the IC50 (commonly the concentration that gives 50% inhibition) was less than 1000 nM.

Turning to `Cc1c(-c2ccncc2)n[nH]c1NC(=O)C(F)Cc1ccc(C#N)c(F)c1` (racemic) [Example 70, (rac)-3-(4-Cyano-3-fluorophenyl)-2-fluoro-N-(4-methyl-3-(pyridin-4-yl)-1H-pyrazol-5-yl)propanamide], the concentration for half-maximal inhibition (IC50) was 1000 to 10000 nM.

Turning to `Cc1c(-c2ccncc2)n[nH]c1NC(=O)C(F)Cc1cc(F)c(Cl)c(F)c1` (racemic) [Example 71, (rac)-3-(4-Chloro-3,5-difluorophenyl)-2-fluoro-N-(4-methyl-3-(pyridin-4-yl)-1H-pyrazol-5-yl)propanamide], the IC50 is less than 1000 nM.

For the compound `Cc1c(NC(=O)C(O)Cc2ccc(Cl)cc2)cnn1-c1ccncc1` (racemic) [Example 150, (rac)-3-(4-Chlorophenyl)-2-hydroxy-N-(5-methyl-1-(pyridin-4-yl)-1H-pyrazol-4-yl)propanamide], the half-maximal inhibitory concentration (IC50) lay in the range of 1000 to 10000 nM.

For `Cc1c(-c2ccncc2)n[nH]c1N1C(=O)CC(Cc2ccc(Cl)cc2)C1=O` (racemic) [Example 154, (rac)-3-(4-Chlorobenzyl)-1-(4-methyl-3-(pyridin-4-yl)-1H-pyrazol-5-yl)pyrrolidine-2,5-dione], the IC50 fell in the range of 1000 to 10000 nM.

Regarding `O=C1CC(c2ccc(Cl)cc2)CC(=O)N1c1cc(-c2ccncc2)n[nH]1` (racemic) [Example 155, (rac)-4-(4-Chlorophenyl)-1-(3-(pyridin-4-yl)-1H-pyrazol-5-yl)piperidine-2,6-dione], the IC50 is less than 1000 nM.

As for `O=C1CC(Cc2ccc(Cl)cc2)C(=O)N1c1cc(-c2ccncc2)n[nH]1` (racemic) [Example 156, (rac)-3-(4-Chlorobenzyl)-1-(3-(pyridin-4-yl)-1H-pyrazol-5-yl)pyrrolidine-2,5-dione], the IC50 was less than 1000 nM.

Turning to `Cc1c(-c2ccncc2)n[nH]c1N1C(=O)CC(c2ccc(Cl)cc2)CC1=O` (racemic) [Example 157, (rac)-4-(4-Chlorophenyl)-1-(4-methyl-3-(pyridin-4-yl)-1H-pyrazol-5-yl)piperidine-2,6-dione], the IC50 lay within 1000 to 10000 nM.

For `CC(=O)N(C(=O)CCc1ccc(Cl)cc1)c1[nH]nc(-c2ccncc2)c1C` [Example 1], the half-maximal inhibitory concentration (IC50) was less than 1000 nM.

Regarding `CCC(=O)N(C(=O)CCc1ccc(Cl)cc1)c1[nH]nc(-c2ccncc2)c1C` [Example 2, 3-(4-Chlorophenyl)-N-(4-methyl-3-(pyridin-4-yl)-1H-pyrazol-5-yl)-N-propionylproanamide], the IC50 is 1000 to 10000 nM.

For `Cc1c(-c2ccncc2)n[nH]c1N(C(=O)CCc1ccc(Cl)cc1)C(=O)CCc1ccc(Cl)cc1` [Example 3, 3-(4-Chlorophenyl)-N-(3-(4-chlorophenyl)propanoyl)-N-(4-methyl-3-(pyridin-4-yl)-1H-pyrazol-5-yl)propanamide], the IC50 is less than 1000 nM.

Turning to `Cc1c(-c2ccncc2)n[nH]c1N(C(=O)CCc1ccc(Cl)cc1)C(=O)CCc1cccc(Cl)c1` [Example 4, 3-(3-Chlorophenyl)-N-(3-(4-chlorophenyl)propanoyl)-N-(4-methyl-3-(pyridin-4-yl)-1H-pyrazol-5-yl)propanamide], the 50% inhibitory concentration (IC50) is less than 1000 nM.

Consider `Cc1c(-c2ccncc2)n[nH]c1N(C(=O)CCc1ccc(Cl)cc1)C(=O)CCc1ccccc1Cl` [Example 5, 3-(2-Chlorophenyl)-N-(3-(4-chlorophenyl)propanoyl)-N-(4-methyl-3-(pyridin-4-yl)-1H-pyrazol-5-yl)propanamide], for which the IC50 was less than 1000 nM.

As to `Cc1c(-c2ccncc2)n[nH]c1N(C(=O)CCc1ccccc1)C(=O)CCc1ccc(Cl)cc1` [Example 6, 3-(4-Chlorophenyl)-N-(4-methyl-3-(pyridin-4-yl)-1H-pyrazol-5-yl)-N-(3-phenylpropanoyl)propanamide], the 50% inhibitory concentration (IC50) is less than 1000 nM.

As for `Cc1c(-c2ccncc2)n[nH]c1N(C(=O)CCc1ccc(Cl)cc1)C(=O)CCC(C)C` [Example 7, N-(3-(4-Chlorophenyl)propanoyl)-4-methyl-N-(4-methyl-3-(pyridin-4-yl)-1H-pyrazol-5-yl)pentanamide], the IC50 was 1000 to 10000 nM.

As for `Cc1c(-c2ccncc2)n[nH]c1N(C(=O)CCc1ccc(Cl)cc1)C(=O)CCC1CCCC1` [Example 8, 3-(4-Chlorophenyl)-N-(3-cyclopentylpropanoyl)-N-(4-methyl-3-(pyridin-4-yl)-1H-pyrazol-5-yl)propanamide], the IC50 is less than 1000 nM.

`Cc1c(-c2ccncc2)n[nH]c1N(C(=O)CCc1cc(F)c(Cl)c(F)c1)C(=O)CCc1cc(F)c(Cl)c(F)c1` [Example 9, 3-(4-Chloro-3,5-difluorophenyl)-N-(3-(4-chloro-3,5-difluorophenyl)propanoyl)-N-(4-methyl-3-(pyridin-4-yl)-1H-pyrazol-5-yl)propanamide]: the IC50 was less than 1000 nM.

With `Cc1c(-c2ccncc2)n[nH]c1N(C(=O)CCc1cc(F)c(F)c(F)c1)C(=O)CCc1cc(F)c(F)c(F)c1` [Example 10, N-(4-Methyl-3-(pyridin-4-yl)-1H-pyrazol-5-yl)-3-(3,4,5-trifluorophenyl)-N-(3-(3,4,5-trifluorophenyl)propanoyl)propanamide], the half-inhibitory concentration (IC50) was less than 1000 nM.

On to `Cc1c(-c2ccncc2)n[nH]c1N(C(=O)CCc1ccc(Cl)cc1)S(C)(=O)=O` [Example 11, 3-(4-Chlorophenyl)-N-(4-methyl-3-(pyridin-4-yl)-1H-pyrazol-5-yl)-N-(methylsulfonyl)propanamide], for which the half-maximal inhibitory concentration (IC50) is less than 1000 nM.

As for `Cc1c(-c2ccncc2)n[nH]c1N(C(=O)CCc1ccc(Cl)cc1)C(=O)C(C)C` [Example 12, 3-(4-Chlorophenyl)-N-isobutyryl-N-(4-methyl-3-(pyridin-4-yl)-1H-pyrazol-5-yl)propanamide], the concentration for half-maximal inhibition (IC50) lay within 1000 to 10000 nM.

With `CCc1c(-c2ccncc2)n[nH]c1NC(=O)CCc1cc(F)c(Cl)c(F)c1` [Example 13, 3-(4-Chloro-3,5-difluorophenyl)-N-(4-ethyl-3-(pyridin-4-yl)-1H-pyrazol-5-yl)propanamide], the IC50 was less than 1000 nM.

As for `CCc1c(-c2ccncc2)n[nH]c1NC(=O)CCc1ccc(Cl)cc1` [Example 14, 3-(4-Chlorophenyl)-N-(4-ethyl-3-(pyridin-4-yl)-1H-pyrazol-5-yl)propanamide], the 50% inhibitory concentration (IC50) was less than 1000 nM.

With `CCc1c(-c2ccncc2)n[nH]c1NC(=O)CCc1cc(F)c(C#N)c(F)c1` [Example 15, 3-(4-Cyano-3,5-difluorophenyl)-N-(4-ethyl-3-(pyridin-4-yl)-1H-pyrazol-5-yl)propanamide], the IC50 was less than 1000 nM.

For `CCc1c(-c2ccncc2)n[nH]c1NC(=O)CCc1ccc(C#N)c(F)c1` [Example 16, 3-(4-Cyano-3-fluorophenyl)-N-(4-ethyl-3-(pyridin-4-yl)-1H-pyrazol-5-yl)propanamide], the 50% inhibitory concentration (IC50) was less than 1000 nM.

Take `CCc1c(-c2ccncc2)n[nH]c1NC(=O)CCc1ccc(Cl)s1` [Example 17]: the half-inhibitory concentration (IC50) was less than 1000 nM.

As for `Cc1c(-c2ccncc2)n[nH]c1NC(=O)CCc1ccc(Cl)cc1` [Example 19, 3-(4-Chlorophenyl)-N-(4-methyl-3-(pyridin-4-yl)-1H-pyrazol-5-yl)propanamide], the concentration for half-maximal inhibition (IC50) was less than 1000 nM.

As for `Cc1c(-c2ccncc2)n[nH]c1NC(=O)CCc1ccc2c(c1)OCO2` [Example 20, 3-(Benzo[d][1,3]dioxol-5-yl)-N-(4-methyl-3-(pyridin-4-yl)-1H-pyrazol-5-yl)propanamide], the concentration for half-maximal inhibition (IC50) is less than 1000 nM.

Consider `Cc1c(-c2ccncc2)n[nH]c1NC(=O)CCc1cc(Cl)cc(Cl)c1` [Example 21, 3-(3,5-Dichlorophenyl)-N-(4-methyl-3-(pyridin-4-yl)-1H-pyrazol-5-yl)propanamide], for which the IC50 was 1000 to 10000 nM.

Turning to `Cc1c(-c2ccncc2)n[nH]c1NC(=O)CCc1ccccc1` [Example 22, N-(4-Methyl-3-(pyridin-4-yl)-1H-pyrazol-5-yl)-3-phenylpropanamide], the 50% inhibitory concentration (IC50) lay in the range of 1000 to 10000 nM.

Turning to `Cc1c(-c2ccncc2)n[nH]c1NC(=O)CCc1ccccc1Cl` [Example 23, 3-(2-Chlorophenyl)-N-(4-methyl-3-(pyridin-4-yl)-1H-pyrazol-5-yl)propanamide], the half-inhibitory concentration (IC50) fell in the range of 1000 to 10000 nM.

Regarding `Cc1ccc(CCC(=O)Nc2[nH]nc(-c3ccncc3)c2C)cc1` [Example 24, N-(4-Methyl-3-(pyridin-4-yl)-1H-pyrazol-5-yl)-3-(p-tolyl)propanamide], the concentration for half-maximal inhibition (IC50) was less than 1000 nM.
